Source: BindingDB's records for patent WO2022109573 (VERTEX PHARMACEUTICALS INCORPORATED, 2022)

Each molecule was assayed against T1, Cystic fibrosis transmembrane conductance regulator [1-507,509-1480] (Human, UniProt P13569, DEL508-508) (assay: Chamber Assay of CFTR-mediated short-circuit currents).
T1 construct: 1-507,509-1480
Procedure: ssing chamber experiments were performed using human bronchial epithelial (HBE) cells derived from CF subjects heterozygous for F508del and a minimal function CFTR mutation (F508del/MF-HBE) and cultured as previously described (Neuberger T, Burton B, Clark H, Van Goor F Methods Mol Biol 2011:741:39-54). After four days the apical media was removed, and the cells were grown at an air liquid interface for >14 days prior to use. […] To isolate the CFTR-mediated short-circuit (ISC) current, F508del/MF-HBE grown on Costar Snapwell cell culture inserts were mounted in an Ussing chamber and the transepithelial ISC was measured under voltage-clamp recording conditions (Vhold= 0 mV) at 37 °C. The basolateral solution contained (in mM) 145 NaCl, 0.83 K2HPO4, 3.3 KH2PO4, 1.2 MgCl2, 1.2 CaCl2, 10 Glucose, 10 HEPES (pH adjusted to 7.4 with NaOH) and the apical solution contained (in mM) 145 NaGluconate, 1.2 MgCl2, 1.2 CaCl2, 10 glucose, 10 HEPES (pH adjusted to 7.4 with NaOH) and 30 µM amiloride to block the epithelial sodium channel. Forskolin (20 µM) was added to the apical surface to activate CFTR, followed by apical addition of a CFTR inhibitor cocktail consisting of BPO, GlyH-101 and CFTR inhibitor 172 (each at 20 µM final assay concentration) to specifically isolate CFTR currents. The CFTR-mediated ISC (µA/cm2) for each condition was determined from the peak forskolin response to the steady-state current following inhibition.

T1 sequence (P13569 as listed by the source): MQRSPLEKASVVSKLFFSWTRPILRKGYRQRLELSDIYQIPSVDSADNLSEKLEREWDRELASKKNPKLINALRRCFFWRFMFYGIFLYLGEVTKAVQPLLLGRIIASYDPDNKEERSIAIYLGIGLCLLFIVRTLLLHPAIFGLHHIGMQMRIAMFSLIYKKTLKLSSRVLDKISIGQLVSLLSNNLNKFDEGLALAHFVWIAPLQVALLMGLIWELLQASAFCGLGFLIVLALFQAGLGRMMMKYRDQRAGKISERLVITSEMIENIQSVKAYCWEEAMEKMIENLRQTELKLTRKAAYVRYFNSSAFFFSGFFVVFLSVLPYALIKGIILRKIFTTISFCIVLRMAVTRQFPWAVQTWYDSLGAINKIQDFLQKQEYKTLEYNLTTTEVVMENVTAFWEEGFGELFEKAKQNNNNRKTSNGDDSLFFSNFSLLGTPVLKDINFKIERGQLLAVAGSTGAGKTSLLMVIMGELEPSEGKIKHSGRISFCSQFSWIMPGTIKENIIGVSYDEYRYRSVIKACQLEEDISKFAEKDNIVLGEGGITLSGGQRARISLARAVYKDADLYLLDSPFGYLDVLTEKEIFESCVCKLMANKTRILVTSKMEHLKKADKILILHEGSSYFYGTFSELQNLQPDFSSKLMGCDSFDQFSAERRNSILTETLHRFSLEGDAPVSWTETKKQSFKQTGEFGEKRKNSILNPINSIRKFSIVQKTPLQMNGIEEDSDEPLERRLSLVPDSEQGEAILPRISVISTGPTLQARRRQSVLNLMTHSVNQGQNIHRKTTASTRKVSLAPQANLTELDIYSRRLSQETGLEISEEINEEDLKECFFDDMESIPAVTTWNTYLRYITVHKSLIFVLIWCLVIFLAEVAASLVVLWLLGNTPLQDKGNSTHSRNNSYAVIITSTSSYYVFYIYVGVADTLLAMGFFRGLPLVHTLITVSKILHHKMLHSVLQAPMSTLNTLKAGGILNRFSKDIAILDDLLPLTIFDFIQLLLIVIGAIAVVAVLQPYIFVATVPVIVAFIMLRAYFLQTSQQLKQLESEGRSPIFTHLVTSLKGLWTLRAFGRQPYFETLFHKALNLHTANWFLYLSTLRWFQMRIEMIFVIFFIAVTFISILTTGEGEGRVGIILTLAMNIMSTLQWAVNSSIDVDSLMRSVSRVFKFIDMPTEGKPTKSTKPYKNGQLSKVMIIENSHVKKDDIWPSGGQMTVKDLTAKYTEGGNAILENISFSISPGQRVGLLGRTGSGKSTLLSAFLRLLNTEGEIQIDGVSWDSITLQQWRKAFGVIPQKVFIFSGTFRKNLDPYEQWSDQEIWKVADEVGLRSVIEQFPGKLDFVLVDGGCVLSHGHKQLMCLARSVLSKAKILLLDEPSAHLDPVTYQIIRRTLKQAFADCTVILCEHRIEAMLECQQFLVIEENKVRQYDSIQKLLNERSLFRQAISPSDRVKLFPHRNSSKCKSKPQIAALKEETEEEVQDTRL

Row | Structure (SMILES) | EC50
1 | Nc1cc(C(F)(F)F)c2nc1-c1nnc(o1)C(=O)CCCCC[C@@H]1CCCN21 [WO2022109573, Compound 36] | < 500 nM
2 | Nc1cc(C(F)(F)F)c2nc1-c1nnc(o1)[C@@](O)(C(F)(F)F)CCCC[C@H]1CCCN21 [WO2022109573, Compound 18] | < 500 nM
3 | CC1(C)CC2CCCCCC(O)(C(F)(F)F)C3=NN=C(O3)c3nc(c(C(F)(F)F)cc3N)N2C1 (stereo unspecified) [WO2022109573, Compound 29] | < 500 nM
4 | Nc1cc(C(F)(F)F)c2nc1-c1nnc(o1)[C@@](O)(C(F)(F)F)CCCCC1CCN2C1 (stereo partly specified) [WO2022109573, Compound 8] | < 500 nM
5 | Nc1cc(C(F)(F)F)c2nc1-c1nnc(o1)C(O)(C(F)(F)F)CCCC[C@@H]1CCCN21 (stereo partly specified) [WO2022109573, Compound 32] | < 500 nM
6 | CNc1cc(C(F)(F)F)c2nc1-c1nnc(o1)[C@@](O)(C(F)(F)F)CCCCC[C@@H]1CCCN21 [WO2022109573, Compound 13] | < 500 nM
7 | CN1CCCCCCC(O)(C(F)(F)F)C2=NN=C(O2)c2nc1c(C(F)(F)F)cc2N (stereo unspecified) [WO2022109573, Compound 19] | < 500 nM
8 | Nc1cc(C(F)(F)F)c2nc1-c1nnc(o1)C(O)(C(F)(F)F)CCCCCCN2CCO (stereo unspecified) [WO2022109573, Compound 41] | < 500 nM
9 | Nc1cc(C(F)(F)F)c2nc1-c1nnc(o1)C(O)(C(F)(F)F)CCCC(=O)N1CCN2CC1 (stereo unspecified) [WO2022109573, Compound 37] | < 500 nM
10 | CCNc1cc(C(F)(F)F)c2nc1-c1nnc(o1)[C@@](O)(C(F)(F)F)CCCCC[C@@H]1CCCN21 [WO2022109573, Compound 14] | < 500 nM
11 | Nc1cc(C(F)(F)F)c2nc1-c1nnc(o1)/C(=N\O)CCCCC[C@@H]1CCCN21 [WO2022109573, Compound 31] | < 500 nM
12 | CC1(O)CCCCC[C@@H]2CCCN2c2nc(c(N)cc2C(F)(F)F)C2=NN=C1O2 (stereo partly specified) [WO2022109573, Compound 45] | < 500 nM
13 | Nc1cc(C(F)(F)F)c2nc1-c1nnc(o1)[C@](O)(C(F)(F)F)CCCCCC[C@H]1CCCN21 [WO2022109573, Compound 25] | < 500 nM
14 | Nc1cc(C(F)(F)F)c2nc1-c1nnc(o1)C(O)CCCCC[C@@H]1CCCN21 (stereo partly specified) [WO2022109573, Compound 21] | < 500 nM
15 | Nc1cc(C(F)(F)F)c2nc1-c1nnc(o1)[C@](O)(C(F)(F)F)CCCCC1CCN2C1 (stereo partly specified) [WO2022109573, Compound 9] | < 500 nM
16 | Nc1cc(C(F)(F)F)c2nc1-c1nnc(o1)[C@](O)(C(F)(F)F)CCCCC[C@@H]1CCCN21 [WO2022109573, Compound 4] | < 500 nM
17 | CCOC(=O)CN1CCCCCCC(O)(C(F)(F)F)C2=NN=C(O2)c2nc1c(C(F)(F)F)cc2N (stereo unspecified) [WO2022109573, Compound 46] | < 500 nM
18 | Nc1cc(C(F)(F)F)c2nc1-c1nnc(o1)[C@](O)(C(F)(F)F)CCCCC[C@H]1CCCN21 [WO2022109573, Compound 7] | < 500 nM
19 | Nc1cc(C(F)(F)F)c2nc1-c1nnc(o1)[C@@](O)(C(F)(F)F)CCCC[C@@H]1CCCN21 [WO2022109573, Compound 17] | < 500 nM
20 | Nc1cc(C(F)(F)F)c2nc1-c1nnc(o1)[C@@](O)(C(F)(F)F)CCCCCC[C@@H]1CCCN21 [WO2022109573, Compound 23] | < 500 nM
21 | Nc1cc(C(F)(F)F)c2nc1-c1nnc(o1)[C@@](O)(C(F)(F)F)CCCCCC[C@H]1CCCN21 [WO2022109573, Compound 24] | < 500 nM
